The compounds below were run against IMPDH human type II (Homo sapiens, UniProt P12268) (assay: IMPDH activity inhibition assay (spectrophotometric, NADH formation at 340 nm)). Settings: not given.
Assay type: biochemical
Description: We have measured the inhibition constants of each compound against IMPDH using an adaptation of the method first reported by […]. Moyed, and […]. Biol. Chem., 226, p. 339 (1957)]. We measured the inhibition constants of the compounds listed in Table III utilizing the following protocol: IMP dehydrogenase activity was assayed following an adaptation of the method first reported by […]. Moyed, H. S. and […]. Biol. Chem. 226, 339]. Enzyme activity was measured spectrophotometrically, by monitoring the increase in absorbance at 340 nm due to the formation of NADH (ε340 is 6220 M^-1 cm^-1). The reaction mixture contained 0.1 M Tris pH 8.0, 0.1 M KCl, 3 mM EDTA, 2 mM DTT, […] and enzyme (IMPDH human type II) at a concentration of 15 to 50 nM. This solution is incubated at 37° C. for 10 minutes. The reaction is started by adding NAD to a final concentration of 0.1 M and the initial rate is measured by following the linear increase in absorbance at 340 nm for 10 minutes. For reading in a standard spectrophotometer (path length 1 cm) the final volume in the cuvette is 1.0 ml. The assay has also been adapted to a 96 well microtiter plate format; in this case the concentrations of all the reagents remain the same and the final volume is decreased to 200 μl. For the analysis of inhibitors, the compound in question is dissolved in DMSO to a final concentration of 20 mM and added to the initial assay mixture for preincubation with the enzyme at a final volume of 2-5% (v/v). The reaction is started by the addition of NAD, and the initial rates measured as above. […] The designation “ND” is used where a given compound was not tested.

SMILES	Ki [nM]
COc1cc(NC(=O)Nc2cccc(CNC(=O)OCCO)c2)ccc1-c1cnco1 [Compound 134]	0.01 to 50
COC(=O)NCc1cccc(NC(=O)Nc2ccc(-c3cnco3)c(OC)c2)c1 [Compound 118]	1000 to 10000
COc1cc(NC(=O)Nc2cccc(CNC(=O)Oc3cccnc3)c2)ccc1-c1cnco1 [Compound 137]	51 to 1000
COC(=O)c1ccc(OC(=O)NCc2cccc(NC(=O)Nc3ccc(-c4cnco4)c(OC)c3)c2)cc1 [Compound 123]	0.01 to 50

Same assay, conditions: IMPDH human type II, 15 to 50 nM enzyme, 37° C., tight-binding fit (Henderson); read-out: Ki

SMILES	Ki [nM]
COc1cc(NC(=O)Nc2cccc(CNC(=O)OC3CCCCO3)c2)ccc1-c1cnco1 (racemic) [Compound 142]	0.01 to 50
O=C(Nc1ccc(-c2cnco2)cc1)Nc1ccc(F)c([N+](=O)[O-])c1 [Compound 104]	1000 to 10000
COc1cc(NC(=O)Nc2cccc(CNC(=O)OCC3CCCNC3)c2)ccc1-c1cnco1 (stereo not shown) [Compound 158]	51 to 1000
CSc1cccc(NC(=O)Nc2ccc(-c3cnco3)cc2)c1 [Compound 6]	1000 to 10000
COc1cc(NC(=O)Nc2cccc(CNC(=O)OCCCSC)c2)ccc1-c1cnco1 [Compound 145]	0.01 to 50
COc1cc(NC(=O)Nc2cccc(CNC(=O)OCC3CCCCO3)c2)ccc1-c1cnco1 (stereo not shown) [Compound 154]	0.01 to 50
O=C(Nc1ccc(-c2cnco2)cc1)Nc1ccc(F)c(Cl)c1 [Compound 23]	1000 to 10000
COc1cc(NC(=O)Nc2cccc(C)c2)ccc1-c1cnco1 [Compound 55]	0.01 to 50
COc1cc(NC(=O)Nc2cccc(N)c2)ccc1-c1cnco1 [Compound 59]	0.01 to 50
COc1cc(NC(=O)Nc2cccc(CNC(=O)OC3C(=O)OCC3(C)C)c2)ccc1-c1cnco1 (stereo not shown) [Compound 144]	51 to 1000
O=C(Nc1ccc(-c2cnco2)cc1)Nc1cccc(S(=O)(=O)NC2CCCCC2)c1 [Compound 80]	1000 to 10000
O=C(Nc1ccc(-c2cnco2)c(Cl)c1)Nc1ccc(-c2cnco2)c(Cl)c1 [Compound 61]	> 10000
O=C(Nc1ccc(-c2cnco2)cc1)Nc1ccsc1 [Compound 3]	51 to 1000
COc1cc(NC(=S)Nc2cccc(C)c2)ccc1-c1cnco1 [Compound 115]	51 to 1000
O=C(Nc1ccc(-c2cnco2)cc1)Nc1cccc(-c2cnco2)c1 [Compound 67]	1000 to 10000
Cc1cnc(NC(=O)Nc2ccc(-c3cnco3)cc2)s1 [Compound 31]	> 10000
COc1cc(NC(=O)Nc2cccc(CNC(=O)OC(CO)CO)c2)ccc1-c1cnco1 [Compound 151]	51 to 1000
Cc1cc(NC(=O)Nc2ccc(-c3cnco3)c(Cl)c2)ccn1 [Compound 62]	1000 to 10000
Cc1cccc(NC(=O)Nc2ccc(-c3cnco3)c(F)c2)c1 [Compound 46]	51 to 1000
O=C(Nc1ccncc1)Nc1ccc(-c2cnco2)cc1 [Compound 30]	1000 to 10000
O=C(Nc1ccc(-c2cnco2)cc1)Nc1cccc([N+](=O)[O-])c1 [Compound 15]	1000 to 10000
CSc1cc(NC(=O)Nc2cccc(CNC(=O)O[C@H]3CCOC3)c2)ccc1C#N [Compound 168]	51 to 1000
O=C(Nc1ccsc1)Nc1ccc(-c2cnco2)c(Cl)c1 [Compound 69]	51 to 1000
COc1cc(NC(=O)Nc2cccc(NC(=O)c3ccccc3)c2)ccc1-c1cnco1 [Compound 110]	51 to 1000
CSc1cc(NC(=O)Nc2cccc(CNC(=O)O[C@H]3CCOC3)c2)ccc1C#N [Compound 165]	0.01 to 50

SMILES	Ki [nM]
Cc1cc(NC(=O)Nc2ccc(-c3cnco3)cc2)ccc1[N+](=O)[O-] [Compound 40]	1000 to 10000
Cc1cccc(NC(=O)Nc2ccc(-c3cnco3)c(Br)c2)c1 [Compound 60]	51 to 1000
COc1cc(NC(=O)Nc2cccc(CNC(=O)OCc3ccccc3)c2)ccc1-c1cnco1 [Compound 138]	0.01 to 50
O=C(Nc1ccc(-c2cnco2)cc1)Nc1ccc(F)c(F)c1 [Compound 4]	> 10000
Cc1cc(NC(=O)Nc2ccccc2)ccc1-c1cnco1 [Compound 74]	51 to 1000
COc1cc(NC(=O)Nc2cccc(CNC(=O)OCC3CCCCN3)c2)ccc1-c1cnco1 (stereo not shown) [Compound 159]	0.01 to 50
COC(=O)Nc1cccc(NC(=O)Nc2ccc(-c3cnco3)c(Cl)c2)c1 [Compound 71]	1000 to 10000
O=C(Nc1ccc(-c2cnco2)cc1)Nc1ccc([N+](=O)[O-])c(C(F)(F)F)c1 [Compound 41]	1000 to 10000
COc1cc(NC(=O)Nc2cccc(NC(=O)C(F)(F)F)c2)ccc1-c1cnco1 [Compound 96]	51 to 1000
O=C(Nc1ccccc1)Nc1ccc(-c2cnco2)c(Cl)c1 [Compound 42]	51 to 1000
CC(=O)N(C)c1cccc(NC(=O)Nc2ccc(C#N)c(S(C)(=O)=O)c2)c1 [Compound 166]	> 10000
COc1cc(NC(=O)Nc2cccc(CN(C)C(=O)OC(C)(C)C)c2)ccc1-c1cnco1 [Compound 117]	51 to 1000
COc1cc(NC(=O)Nc2ccc3c(c2)N(C(C)=O)CC3)ccc1-c1cnco1 [Compound 106]	51 to 1000
COc1cc(NC(=O)Nc2cccc(CNC(=O)OCCCCO)c2)ccc1-c1cnco1 [Compound 140]	0.01 to 50
O=C(Nc1ccc(-c2cnco2)cc1)Nc1cccc(Cl)c1 [Compound 22]	1000 to 10000
COc1cc(NC(=O)Nc2cccc(NC(=O)Oc3ccccc3)c2)ccc1-c1cnco1 [Compound 99]	0.01 to 50
COc1cc(NC(=O)Nc2cccc(NC(=O)OCc3cccnc3)c2)ccc1-c1cnco1 [Compound 98]	51 to 1000
COc1cc(NC(=O)Nc2cccc(CNC(=O)OC3CCCN(C(=O)OC(C)(C)C)C3)c2)ccc1-c1cnco1 (stereo not shown) [Compound 143]	51 to 1000
COC(=O)c1cc(NC(=O)Nc2cccc([N+](=O)[O-])c2)ccc1-c1cnco1 [Compound 89]	1000 to 10000
O=C(O)Cc1cccc(NC(=O)Nc2ccc(-c3cnco3)c(Cl)c2)c1 [Compound 63]	1000 to 10000
Cc1cccc(NC(=O)Nc2ccc(-c3cnco3)c(C)c2)c1 [Compound 75]	51 to 1000
CCc1cccc(NC(=O)Nc2ccc(OC)c(OC)c2)c1 [Compound 37]	1000 to 10000
NC(=O)c1cccc(NC(=O)Nc2ccc(-c3cnco3)cc2)c1 [Compound 51]	> 10000
COc1cc(NC(=O)Nc2cccc(CNC(=O)OCc3cccs3)c2)ccc1-c1cnco1 [Compound 129]	0.01 to 50
C#Cc1cccc(NC(=O)Nc2ccc(-c3cnco3)cc2)c1 [Compound 26]	1000 to 10000

SMILES	Ki [nM]
COc1cc(NC(=O)Nc2cccc(CNC(=O)OCc3ccccn3)c2)ccc1-c1cnco1 [Compound 121]	0.01 to 50
O=C(Nc1ccc(-c2cnco2)cc1)Nc1cccc(O)c1 [Compound 27]	1000 to 10000
Cc1cccc(NC(=O)Nc2cccc([N+](=O)[O-])c2)c1 [Compound 32]	> 10000
Nc1cccc(NC(=O)Nc2ccc(-c3cnco3)cc2)c1 [Compound 24]	51 to 1000
O=C(Nc1ccc(-c2cnco2)cc1)Nc1cccc(F)c1 [Compound 20]	1000 to 10000
COc1ccccc1NC(=O)Nc1ccc(-c2cnco2)cc1 [Compound 12]	1000 to 10000
Cc1ccc(NC(=O)Nc2ccc(-c3cnco3)c(Cl)c2)s1 [Compound 86]	1000 to 10000
Nc1cccc(NC(=O)Nc2ccc(-c3cnco3)c(Cl)c2)c1 [Compound 79]	51 to 1000
O=C(Nc1ccc(-c2cnco2)cc1)Nc1cccc(S(=O)(=O)Nc2ccccc2)c1 [Compound 82]	1000 to 10000
COc1cc(NC(=O)Nc2cccc(CNC(=O)OCC3CCN(C(=O)OC(C)(C)C)CC3)c2)ccc1-c1cnco1 [Compound 148]	0.01 to 50
COc1ccc(NC(=O)Nc2cccc(F)c2)cc1OC [Compound 36]	1000 to 10000
Cc1cccc(NC(=O)Nc2ccc(-c3cnco3)c(Cl)c2)c1 [Compound 43]	51 to 1000
Cc1cccc(NC(=O)Nc2ccc(-c3cnco3)c(CO)c2)c1 [Compound 102]	1000 to 10000
Cc1cccc(NC(=O)Nc2ccc(-c3cnco3)c(N)c2)c1 [Compound 109]	51 to 1000
COc1cc(NC(=O)Nc2cccc(CNC(=O)OC3CCCCC3)c2)ccc1-c1cnco1 [Compound 132]	0.01 to 50
COc1cc(NC(=O)Nc2cccc(CNC(=O)OCc3ccco3)c2)ccc1-c1cnco1 [Compound 128]	0.01 to 50
COC(=O)c1cc(NC(=O)Nc2cccc(C)c2)ccc1-c1cnco1 [Compound 88]	1000 to 10000
O=C(NCc1ccccc1)Nc1ccc(-c2cnco2)cc1 [Compound 1]	1000 to 10000
O=C(Nc1ccccc1)Nc1ccc(-c2cnco2)c(F)c1 [Compound 45]	1000 to 10000
O=C(Nc1ccc(-c2cnco2)cc1)Nc1cccc(CO)c1 [Compound 25]	1000 to 10000
Cc1c(Cl)cccc1NC(=O)Nc1ccc(-c2cnco2)cc1 [Compound 10]	1000 to 10000
COc1cc(NC(=O)Nc2cccc(NC(=O)CC3CCCC3)c2)ccc1-c1cnco1 [Compound 114]	51 to 1000
CNc1cccc(NC(=O)Nc2ccc(-c3cnco3)c(Cl)c2)c1 [Compound 94]	51 to 1000
Nc1cccc(NC(=O)Nc2ccc(-c3cnco3)c(Br)c2)c1 [Compound 65]	51 to 1000
Cc1cccc(NC(=O)Nc2ccc(-c3ocnc3C)cc2)c1 [Compound 77]	51 to 1000

From patent publication US7329681B2, “Inhibitors of IMPDH enzyme” (Vertex Pharmaceuticals Incorporated, priority 1996, dated 2008)
